Data reported in ChEMBL document CHEMBL1255342, “Efficacy of benzoxazinorifamycins in a mouse model of Chlamydia pneumoniae lung infection” (2008).
Converted amounts (≈) assume the structure as drawn. “And” between values parts separate entries of the source, which are not always exact repeats. Equal entries are not always repeated.

Legend:
Assay type in all cases: functional
Chlamydia pneumoniae [1] = experiment: Antimicrobial activity against Chlamydia pneumoniae TW-183 after 72 hrs by twofold dilution method; conditions: TW-183, 72 h
Chlamydia pneumoniae [2] = experiment: Antimicrobial activity against Chlamydia pneumoniae AR39 infected in C57BL/6J mouse at 1 mg/kg, ip assessed as bacterial load measured on day 10 post infection relative to control; conditions: route intraperitoneal
Chlamydia pneumoniae [3] = experiment: Antimicrobial activity against Chlamydia pneumoniae AR39 infected in C57BL/6J mouse at 3 mg/kg, ip assessed as bacterial load measured on day 10 post infection relative to control; conditions: route intraperitoneal

Row | MIC (Chlamydia pneumoniae [1]) [ng/mL] | SMILES | Efficacy (Chlamydia pneumoniae [2]) [%] | Efficacy (Chlamydia pneumoniae [3]) [%] | Efficacy (Chlamydia pneumoniae [2]; 1 mg/kg) | Efficacy (Chlamydia pneumoniae [3]; 3 mg/kg)
1 | 0.064 (≈ 0.0712 nM) | CO[C@H]1/C=C/O[C@@]2(C)Oc3c(C)c(O)c4c(=O)c(c5oc6cc(N7CC(N(C)C)C7)cc(O)c6nc-5c4c3C2=O)NC(=O)/C(C)=C\C=C\[C@H](C)[C@H](O)[C@@H](C)[C@@H](O)[C@@H](C)[C@H](OC(C)=O)[C@@H]1C | 0.06 | 0.025 |  | 
2 |  | CO[C@H]1/C=C/O[C@@]2(C)Oc3c(C)c(O)c4c(=O)c(c5oc6cc(N7CCC(C)(N(C)C)CC7)cc(O)c6nc-5c4c3C2=O)NC(=O)/C(C)=C\C=C\[C@H](C)[C@H](O)[C@@H](C)[C@@H](O)[C@@H](C)[C@H](OC(C)=O)[C@@H]1C | 0.49 | 0.56 |  | 
3 | 0.125 (≈ 0.146 nM) | CO[C@H]1/C=C/O[C@@]2(C)Oc3c(C)c(O)c4c(=O)c(c5oc6cc(N7CCN(C)CC7)cc(O)c6nc-5c4c3C2=O)NC(=O)/C(C)=C\C=C\[C@H](C)[C@H](O)[C@@H](C)[C@@H](O)[C@@H](C)[C@H](O)[C@@H]1C |  |  | 1.26% and 6.04% | 0.44% and 0.18%
4 | 0.25 (≈ 0.266 nM) | CO[C@H]1/C=C/O[C@@]2(C)Oc3c(C)c(O)c4c(=O)c(c5oc6cc(N7CCN(CC(C)C)CC7)cc(O)c6nc-5c4c3C2=O)NC(=O)/C(C)=C\C=C\[C@H](C)[C@H](O)[C@@H](C)[C@@H](O)[C@@H](C)[C@H](OC(C)=O)[C@@H]1C [RIFALAZIL] | 0.24 | 1.14 |  | 
5 | 0.125 (≈ 0.135 nM) | CO[C@H]1/C=C/O[C@@]2(C)Oc3c(C)c(O)c4c(=O)c(c5oc6cc(N7CC8CCC(C7)N8C)cc(O)c6nc-5c4c3C2=O)NC(=O)/C(C)=C\C=C\[C@H](C)[C@H](O)[C@@H](C)[C@@H](O)[C@@H](C)[C@H](OC(C)=O)[C@@H]1C | 0.14 | <0.025 |  | 
6 | 0.064 (≈ 0.0713 nM) | CO[C@H]1/C=C/O[C@@]2(C)Oc3c(C)c(O)c4c(=O)c(c5oc6cc(N7CCN(CC8CC8)CC7)cc(O)c6nc-5c4c3C2=O)NC(=O)/C(C)=C\C=C\[C@H](C)[C@H](O)[C@@H](C)[C@@H](O)[C@@H](C)[C@H](O)[C@@H]1C | 1.34 | 15.51 |  | 
7 | 0.064 (≈ 0.066 nM) | CO[C@H]1/C=C/O[C@@]2(C)Oc3c(C)c(O)c4c(=O)c(c5oc6cc(N7CCC(C)(C)N(C)C(C)(C)C7)cc(O)c6nc-5c4c3C2=O)NC(=O)/C(C)=C\C=C\[C@H](C)[C@H](O)[C@@H](C)[C@@H](O)[C@@H](C)[C@H](OC(C)=O)[C@@H]1C | 0.03 | <0.025 |  | 
